{
  "source": "patent US20250092001A1",
  "about": "“NOVEL EXCITATORY AMINO ACID GLUTAMATE TRANSPORT MODULATORS AND METHODS USING THE SAME” (Drexel University, priority 2022, published 2025)",
  "key": {"NR2A, NR2B, NR1": {"tested_on": "NR2A, NR2B, NR1", "experiment": "Western blot of cortex and striatum of treated PD rats: NMDA receptor subunits", "format": "in vivo, rat", "experimental": "Cortex and striatum were separately collected, and homogenates were prepared. Homogenates were centrifuged to obtain the protein extract in membrane and cytoplasmic fraction. Protein was estimated for each individual samples. Protein lysates were mixed with 6× loading buffer (5:1 ratio) and were heated (95° C. for 5 min). 20 μg protein was loaded to Tris-Glycine Mini gel for separation at […] for 2 h. Separated proteins were transferred to a PVDF membrane. 3% BSA was used for blocking the nontarget proteins to avoid noise. Membrane was incubated with primary Ab overnight at 4° C. followed by secondary Ab incubation for 3 h at room temperature. The protein bands were detected using ECL methods. The bands were quantified using Image J software."}, "[1]": {"tested_on": "R6/2 mice (Huntington disease model)", "experiment": "Open field locomotion test", "format": "in vivo, mouse", "settings": "GTS467 2, 4, and 10 mg/kg", "experimental": "FIG. 9A depicts the results of a locomotion test. In the locomotion test of FIG. 9A, wildtype and R6/2 mice treated with vehicle or different doses of GTS467 (2, 4, and 10 mg/kg) or ceftriaxone (200 mg/kg) were subjected to the open field test to evaluate their locomotor abilities in a 44×44 cm and 43×43 cm square open field arena. Animals were placed individually in the open field arena and behavior was recorded for a period of 5 minutes under dim light and low noise conditions. Animal behavior was recorded using an overhead camera and the distance moved was recorded and quantified using the Noldus ethovision XT-14 software. FIG. 9B depicts the results of a memory task test. Referring to FIG. 9B, to test for memory impairment a novel object recognition assay was performed. A 44×44 cm square shaped open field arena was used to perform this test at week 12 and week 15. The behavioral evaluation was performed in 2 sets, each set having equal number of animals. […] The behavior was recorded under dim light and low noise conditions using an overhead camera. Cumulative duration with both the objects, total object exploration (sec), distance travelled (cm) was quantified using the Noldus ethovision XT 14 software. […]"}, "PD rats": {"tested_on": "PD rats", "experiment": "Elevated plus maze (EPM)", "format": "in vivo, rat", "settings": "male PD rats; 4 mg/kg; 10 min post treatment", "experimental": "Referring to FIGS. 11-13, in the elevated plus maze test, male PD rats were treated with either saline or GTS467 (4 mg/kg). 10 min post treatment, the rats were placed in the middle of the elevated plus maze (EPM). Time spent in closed and open arms were recorded for 5 min. Frequency of entries in open and close arms was recorded."}},
  "data": [
    {"smiles": "COc1ccc(NC(=O)C(=O)NCC(c2ccccc2)N2CCN(C)CC2)cc1", "note": "(stereo not shown) [GT467, N1-(4-methoxyphenyl)-N2-(2-(4-methylpiperazin-1-yl)-2-phenylethyl)oxalamide]", "values": [
      {"measurement": "NR1 expression", "setting": "NR2A, NR2B, NR1; cortex (CRTX)", "value": "reduced in CRTX"},
      {"measurement": "NR2A, 2B and NR1 expressions", "setting": "NR2A, NR2B, NR1; synaptic level", "value": "elevation of NR2A, 2B and NR1 expressions"},
      {"measurement": "Distance moved", "setting": "[1]", "value": "significantly increased"},
      {"measurement": "Anxiety (time spent in open vs. closed arm of EPM)", "setting": "PD rats", "value": "did not induce anxiety"}
    ]}
  ]
}
